# Test results reported in ChEMBL document CHEMBL1201862, “PubChem BioAssay data set” (2004).
#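 Five compound concentrations were applied to cells in 96-well plates for 48 hours; endpoints were derived by simple linear interpolation of the resulting dose-response curve. GI50 marks 50% less growth.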 Calls of active or inactive are those of the source. Cut-off read from the data, not from the text of the source: active = GI50 up to about 1.1 µM and inactive = higher.
# Experiments:
# Experiment in all cases: growth of human tumour cells (NCI), 48 h
# SNB-19 = test system: SNB-19
# RXF 631 = test system: RXF 631
# A498 = test system: A498
# COLO 205 = test system: COLO 205
# NCI-H460 = test system: NCI-H460
# DMS-114 = test system: DMS-114
# CCRF-CEM = test system: CCRF-CEM
# Malme-3M = test system: Malme-3M
# CAKI-1 = test system: CAKI-1
# EKVX = test system: EKVX
# UACC-62 = test system: UACC-62
# HT-29 = test system: HT-29
# OVCAR-3 = test system: OVCAR-3
# RXF 393 = test system: RXF 393
# M14 = test system: M14
# HOP-18 = test system: HOP-18
# UACC-257 = test system: UACC-257
# NCI-H23 = test system: NCI-H23
# KM12 = test system: KM12
# SF-268 = test system: SF-268
# SF-539 = test system: SF-539
# SK-MEL-2 = test system: SK-MEL-2
# NCI-H522 = test system: NCI-H522
# DLD-1 = test system: DLD-1
# MOLT-4 = test system: MOLT-4
# A549 = test system: A549
# 786-0 = test system: 786-0
# DMS-273 = test system: DMS-273
# IGROV-1 = test system: IGROV-1
# HCT-15 = test system: HCT-15
# LOX IMVI = test system: LOX IMVI
# HCT-116 = test system: HCT-116
# SK-OV-3 = test system: SK-OV-3
# SW-620 = test system: SW-620
# KM-20L2 = test system: KM-20L2
# SF-295 = test system: SF-295
# SNB-75 = test system: SNB-75
# SN12C = test system: SN12C
# TK-10 = test system: TK-10
# SK-MEL-28 = test system: SK-MEL-28
# SNB-78 = test system: SNB-78
# SR = test system: SR
# U-251 = test system: U-251
# M19-MEL = test system: M19-MEL
# HOP-92 = test system: HOP-92
# RPMI-8226 = test system: RPMI-8226
# HCC 2998 = test system: HCC 2998
# K562 = test system: K562
# XF498 = test system: XF498
# UO-31 = test system: UO-31
# SK-MEL-5 = test system: SK-MEL-5
# NCI-H226 = test system: NCI-H226
# HL-60 = test system: HL-60
# OVCAR-4 = test system: OVCAR-4
# OVCAR-8 = test system: OVCAR-8
# LXFL 529 = test system: LXFL 529
# ACHN = test system: ACHN
# OVCAR-5 = test system: OVCAR-5
# HOP-62 = test system: HOP-62
compound,measurement,setting,value
COc1cc2c(c(OC)c1OC)-c1ccc(SC)c(=O)cc1C(CC(=O)Oc1cccc([N+](=O)[O-])c1)C2 (stereo not given),GI50,SNB-19,4.62 µM (inactive)
same,GI50,RXF 631,0.502 µM (active)
same,GI50,A498,0.0277 µM (active)
same,GI50,COLO 205,0.489 µM (active)
same,GI50,NCI-H460,0.45 µM (active)
same,GI50,DMS-114,0.312 µM (active)
same,GI50,CCRF-CEM,0.745 µM (active)
same,GI50,Malme-3M,0.36 µM (active)
same,GI50,CAKI-1,0.685 µM (active)
same,GI50,EKVX,3.38 µM (inactive)
same,GI50,UACC-62,0.356 µM (active)
same,GI50,HT-29,0.362 µM (active)
same,GI50,OVCAR-3,0.276 µM (active)
same,GI50,RXF 393,0.139 µM (active)
same,GI50,M14,0.412 µM (active)
same,GI50,HOP-18,> 100 µM (inactive)
same,GI50,UACC-257,2.89 µM (inactive)
same,GI50,NCI-H23,0.78 µM (active)
same,GI50,KM12,0.424 µM (active)
same,GI50,SF-268,1.02 µM (active)
same,GI50,SF-539,0.263 µM (active)
same,GI50,SK-MEL-2,0.713 µM (active)
same,GI50,NCI-H522,0.493 µM (active)
same,GI50,DLD-1,0.933 µM (active)
same,GI50,MOLT-4,1.15 µM (inactive)
same,GI50,A549,1.16 µM (inactive)
same,GI50,786-0,0.473 µM (active)
same,GI50,DMS-273,0.364 µM (active)
same,GI50,IGROV-1,3.44 µM (inactive)
same,GI50,HCT-15,0.4 µM
same,GI50,LOX IMVI,0.867 µM (active)
same,GI50,HCT-116,0.384 µM (active)
same,GI50,SK-OV-3,0.0736 µM (active)
same,GI50,SW-620,0.4 µM (active)
same,GI50,KM-20L2,0.585 µM (active)
same,GI50,SF-295,0.342 µM (active)
same,GI50,SNB-75,0.268 µM (active)
same,GI50,SN12C,1.11 µM (active)
same,GI50,TK-10,> 90.8 µM (inactive)
same,GI50,SK-MEL-28,0.546 µM (active)
same,GI50,SNB-78,0.481 µM (active)
same,GI50,SR,0.459 µM (active)
same,GI50,U-251,0.794 µM (active)
same,GI50,M19-MEL,0.458 µM (active)
same,GI50,HOP-92,3.09 µM (inactive)
same,GI50,RPMI-8226,0.647 µM (active)
same,GI50,HCC 2998,0.161 µM (active)
same,GI50,K562,0.344 µM (active)
same,GI50,XF498,0.74 µM (active)
same,GI50,UO-31,2.76 µM (inactive)
same,GI50,SK-MEL-5,0.592 µM (active)
same,GI50,NCI-H226,0.764 µM (active)
same,GI50,HL-60,0.255 µM (active)
same,GI50,OVCAR-4,5.66 µM (inactive)
same,GI50,OVCAR-8,0.767 µM (active)
same,GI50,LXFL 529,0.619 µM (active)
same,GI50,ACHN,0.891 µM (active)
CCC1N2CCCCC2[C@@H]2c3[nH]c4ccccc4c3CCN12 (stereo not given in full),GI50,SNB-19,> 100 µM (inactive)
same,GI50,RXF 631,> 100 µM (inactive)
same,GI50,A498,> 100 µM (inactive)
same,GI50,COLO 205,> 100 µM (inactive)
same,GI50,NCI-H460,> 100 µM (inactive)
same,GI50,DMS-114,> 100 µM (inactive)
same,GI50,CCRF-CEM,> 100 µM (inactive)
same,GI50,Malme-3M,> 100 µM (inactive)
same,GI50,CAKI-1,> 100 µM (inactive)
same,GI50,EKVX,> 100 µM (inactive)
same,GI50,UACC-62,> 100 µM (inactive)
same,GI50,HT-29,> 100 µM (inactive)
same,GI50,OVCAR-3,> 100 µM (inactive)
same,GI50,RXF 393,> 100 µM (inactive)
same,GI50,M14,> 100 µM (inactive)
same,GI50,OVCAR-5,> 100 µM (inactive)
same,GI50,HOP-18,> 100 µM (inactive)
same,GI50,UACC-257,> 100 µM (inactive)
same,GI50,NCI-H23,> 100 µM (inactive)
same,GI50,SF-268,> 100 µM (inactive)
same,GI50,SF-539,> 100 µM (inactive)
same,GI50,SK-MEL-2,> 100 µM (inactive)
same,GI50,NCI-H522,> 100 µM (inactive)
same,GI50,DLD-1,> 100 µM (inactive)
same,GI50,MOLT-4,> 100 µM (inactive)
same,GI50,A549,> 100 µM (inactive)
same,GI50,786-0,> 100 µM (inactive)
same,GI50,DMS-273,> 100 µM (inactive)
same,GI50,IGROV-1,> 100 µM (inactive)
same,GI50,HCT-15,> 100 µM
same,GI50,HCT-116,> 100 µM (inactive)
same,GI50,SK-OV-3,> 100 µM (inactive)
same,GI50,SW-620,> 100 µM (inactive)
same,GI50,KM-20L2,> 100 µM (inactive)
same,GI50,SF-295,> 100 µM (inactive)
same,GI50,SNB-75,77.8 µM (inactive)
same,GI50,SN12C,> 100 µM (inactive)
same,GI50,TK-10,> 100 µM (inactive)
same,GI50,SK-MEL-28,> 100 µM (inactive)
same,GI50,SNB-78,> 100 µM (inactive)
same,GI50,U-251,> 100 µM (inactive)
same,GI50,M19-MEL,> 100 µM (inactive)
same,GI50,HOP-92,> 100 µM (inactive)
same,GI50,RPMI-8226,> 100 µM (inactive)
same,GI50,HCC 2998,> 100 µM (inactive)
same,GI50,K562,> 100 µM (inactive)
same,GI50,XF498,> 100 µM (inactive)
same,GI50,UO-31,> 100 µM (inactive)
same,GI50,SK-MEL-5,> 100 µM (inactive)
same,GI50,HL-60,> 100 µM (inactive)
same,GI50,OVCAR-4,> 100 µM (inactive)
same,GI50,HOP-62,> 100 µM (inactive)
same,GI50,OVCAR-8,> 100 µM (inactive)
same,GI50,LXFL 529,> 100 µM (inactive)
same,GI50,ACHN,> 100 µM (inactive)
COc1ccc(NC(=O)c2cc(OC)c(OC)c(OC)c2)cc1,GI50,SNB-19,> 100 µM (inactive)
same,GI50,RXF 631,> 56.4 µM (inactive)
same,GI50,A498,43.6 µM (inactive)
same,GI50,COLO 205,26.5 µM (inactive)
same,GI50,NCI-H460,35.9 µM (inactive)
same,GI50,DMS-114,25.7 µM (inactive)
same,GI50,CCRF-CEM,37.8 µM (inactive)
same,GI50,Malme-3M,41.6 µM (inactive)
same,GI50,CAKI-1,66.4 µM (inactive)
same,GI50,EKVX,> 69.2 µM (inactive)
same,GI50,UACC-62,31 µM (inactive)
same,GI50,HT-29,36.8 µM (inactive)
same,GI50,OVCAR-3,39.1 µM (inactive)
same,GI50,RXF 393,31.3 µM (inactive)
same,GI50,M14,88.1 µM (inactive)
same,GI50,OVCAR-5,> 100 µM (inactive)
same,GI50,HOP-18,> 64.6 µM (inactive)
same,GI50,UACC-257,42.8 µM (inactive)
same,GI50,NCI-H23,40.7 µM (inactive)
same,GI50,KM12,22.8 µM (inactive)
same,GI50,SF-268,> 56.4 µM (inactive)
same,GI50,SF-539,48 µM (inactive)
same,GI50,SK-MEL-2,21.8 µM (inactive)
same,GI50,NCI-H522,30.2 µM (inactive)
same,GI50,DLD-1,50.6 µM (inactive)
same,GI50,MOLT-4,34.3 µM (inactive)
same,GI50,A549,62.1 µM (inactive)
same,GI50,786-0,> 81.8 µM (inactive)
same,GI50,DMS-273,29.1 µM (inactive)
same,GI50,IGROV-1,66.1 µM (inactive)
same,GI50,HCT-15,33.4 µM
same,GI50,LOX IMVI,60.3 µM (inactive)
same,GI50,HCT-116,36.7 µM (inactive)
same,GI50,SK-OV-3,49.8 µM (inactive)
same,GI50,SW-620,39.8 µM (inactive)
same,GI50,KM-20L2,32.7 µM (inactive)
same,GI50,SF-295,36.1 µM (inactive)
same,GI50,SNB-75,42.2 µM (inactive)
same,GI50,SN12C,55 µM (inactive)
same,GI50,TK-10,> 100 µM (inactive)
same,GI50,SK-MEL-28,29 µM (inactive)
same,GI50,SNB-78,42.7 µM (inactive)
same,GI50,U-251,39.6 µM (inactive)
same,GI50,M19-MEL,41.7 µM (inactive)
same,GI50,HOP-92,> 100 µM (inactive)
same,GI50,RPMI-8226,39.5 µM (inactive)
same,GI50,HCC 2998,42.2 µM (inactive)
same,GI50,K562,24.7 µM (inactive)
same,GI50,XF498,> 100 µM (inactive)
same,GI50,UO-31,64.1 µM (inactive)
same,GI50,SK-MEL-5,28.2 µM (inactive)
same,GI50,NCI-H226,> 78.3 µM (inactive)
same,GI50,HL-60,22.2 µM (inactive)
same,GI50,OVCAR-4,> 100 µM (inactive)
same,GI50,HOP-62,33 µM (inactive)
same,GI50,OVCAR-8,74.6 µM (inactive)
same,GI50,LXFL 529,51.8 µM (inactive)
same,GI50,ACHN,83.8 µM (inactive)
